Reference: US5440016A, “Peptides of the formula (KFmoc) ZZZ and their uses” (priority 1993, dated 1995)
Values after ≈ are worked out from the molar mass of the structure shown. Where two headings read alike, the source gives them in different places. Square brackets hold non-standard residues; d marks the D form. Peptide text beside a SMILES is read from it. * marks the point of attachment. Fmoc = O=C(OCC1c2ccccc2-c2ccccc21)*

Tests used:
[1] = tested on: Streptococcus sanguis ATCC 10556
Procedure: Streptococcus sanguis ATCC 10556 (Gram-positive (+) bacteria present in tooth crevices) was grown overnight at 37° C. in Brain Heart Infusion (BHI) broth. This culture was reinoculated and incubated at 37° C. to reach the exponential phase of bacteria growth, i.e., a final bacterial suspension containing 10^5 to 5×10^5 colony-forming units (CFU)/ml. The concentration of cells was established by plating 100 μl of different dilutions of the culture solution (e.g., 10^-2, 10^-4) and 10^-4) onto solid agar plates. Following an overnight incubation at 37° C., the CFU thus formed were counted on each agar plate. In 96-well tissue culture plates, as control blanks, eight wells per plate contained only medium, while as a positive growth control, eight other wells contained medium plus cells. […] The plates were incubated overnight at 37° C., and the optical density (OD) determined at 620 nm after 20 to 24 hours incubation.

[2] = tested on: Candida albicans ATCC 10231
[3] = tested on: Escherichia coli ATCC 25922
[4] = tested on: Human red blood cells (RBCs); test: Hemolytic activity; type: cell-based; settings: Tables 18-21
[5] = tested on: Staphylococcus aureus ATCC 29213
[6] = Tables 2-5, concentration necessary to inhibit 50% growth
[7] = Tables 11-13, lower parts (unnatural amino acids)
[8] = Tables 7-9, lower parts (unnatural amino acids)
[9] = Tables 15-17, lower parts (unnatural amino acids)
[10] = Tables 3-5, lower parts (unnatural amino acids)

| Compound | IC50 against S. sanguis ([1]; Tables 10-13) | IC50 against C. albicans ([2]; Tables 14-17) | IC50 against E. coli [3, 6] | HD50 (concentration necessary to lyse 50% of the cells) [4] | IC50 against S. aureus ([5]; Tables 6-9) | IC50 against S. sanguis [1, 7] | IC50 against S. aureus [5, 8] | IC50 against C. albicans [2, 9] | IC50 against E. coli [3, 10] |
| --- | --- | --- | --- | --- | --- | --- | --- | --- | --- |
| C[C@@H](NC(=O)[C@H](CCCCN)NC(=O)[C@H](Cc1c[nH]c2ccccc12)NC(=O)[C@H](CCCCN)NC(=O)OCC1c2ccccc2-c2ccccc21)C(N)=O [(KFmoc)WKa-NH2] (Fmoc-KWK[dA]-NH2) | 8 µg/mL (≈ 10.6 µM) | 200 µg/mL (≈ 266 µM) | 60 µg/mL (≈ 79.7 µM) | 437 µg/mL | 7 µg/mL (≈ 9.3 µM) | – | – | – | – |
| NCCCC[C@H](NC(=O)OCC1c2ccccc2-c2ccccc21)C(=O)N[C@@H](Cc1c[nH]c2ccccc12)C(=O)N[C@@H](CCCCN)C(=O)N[C@H](CS)C(N)=O [(KFmoc)WKc-NH2] (Fmoc-KWK[dC]-NH2) | 4 µg/mL (≈ 5.1 µM) | 243 µg/mL (≈ 310 µM) | 23 µg/mL (≈ 29.3 µM) | 25 µg/mL | 4 µg/mL (≈ 5.1 µM) | – | – | – | – |
| NCCCC[C@H](NC(=O)OCC1c2ccccc2-c2ccccc21)C(=O)N[C@@H](Cc1c[nH]c2ccccc12)C(=O)N[C@@H](CCCCN)C(=O)N[C@H](Cc1ccccc1)C(N)=O [(KFmoc)WKf-NH2] (Fmoc-KWK[dF]-NH2) | 6 µg/mL (≈ 7.24 µM) | 133 µg/mL (≈ 160 µM) | 38 µg/mL (≈ 45.8 µM) | 126 µg/mL | 10 µg/mL (≈ 12.1 µM) | – | – | – | – |
| NCCCC[C@H](NC(=O)OCC1c2ccccc2-c2ccccc21)C(=O)N[C@@H](Cc1c[nH]c2ccccc12)C(=O)N[C@@H](CCCCN)C(=O)N[C@H](Cc1c[nH]cn1)C(N)=O [(KFmoc)WKh-NH2] (Fmoc-KWK[dH]-NH2) | 6 µg/mL (≈ 7.33 µM) | 156 µg/mL (≈ 190 µM) | 52 µg/mL (≈ 63.5 µM) | 313 µg/mL | 6 µg/mL (≈ 7.33 µM) | – | – | – | – |
| CC[C@@H](C)[C@@H](NC(=O)[C@H](CCCCN)NC(=O)[C@H](Cc1c[nH]c2ccccc12)NC(=O)[C@H](CCCCN)NC(=O)OCC1c2ccccc2-c2ccccc21)C(N)=O [(KFmoc)WKi-NH2] (Fmoc-KWK[dI]-NH2) | 8 µg/mL (≈ 10.1 µM) | 209 µg/mL (≈ 263 µM) | 23 µg/mL (≈ 28.9 µM) | 296 µg/mL | 9 µg/mL (≈ 11.3 µM) | – | – | – | – |
| NCCCC[C@H](NC(=O)OCC1c2ccccc2-c2ccccc21)C(=O)N[C@@H](Cc1c[nH]c2ccccc12)C(=O)N[C@@H](CCCCN)C(=O)N[C@H](CCCCN)C(N)=O [(KFmoc)WKk-NH2] (Fmoc-KWK[dK]-NH2) | 7 µg/mL (≈ 8.64 µM) | 126 µg/mL (≈ 156 µM) | – | – | 8 µg/mL (≈ 9.88 µM) | – | – | – | – |
| CC(C)C[C@@H](NC(=O)[C@H](CCCCN)NC(=O)[C@H](Cc1c[nH]c2ccccc12)NC(=O)[C@H](CCCCN)NC(=O)OCC1c2ccccc2-c2ccccc21)C(N)=O [(KFmoc)WKl-NH2] (Fmoc-KWK[dL]-NH2) | 5 µg/mL (≈ 6.29 µM) | 121 µg/mL (≈ 152 µM) | 20 µg/mL (≈ 25.2 µM) | 166 µg/mL | 5 µg/mL (≈ 6.29 µM) | – | – | – | – |
| CSCC[C@@H](NC(=O)[C@H](CCCCN)NC(=O)[C@H](Cc1c[nH]c2ccccc12)NC(=O)[C@H](CCCCN)NC(=O)OCC1c2ccccc2-c2ccccc21)C(N)=O [(KFmoc)WKm-NH2] (Fmoc-KWK[dM]-NH2) | 7 µg/mL (≈ 8.61 µM) | 163 µg/mL (≈ 200 µM) | 41 µg/mL (≈ 50.4 µM) | 178 µg/mL | 7 µg/mL (≈ 8.61 µM) | – | – | – | – |
| NCCCC[C@H](NC(=O)OCC1c2ccccc2-c2ccccc21)C(=O)N[C@@H](Cc1c[nH]c2ccccc12)C(=O)N[C@@H](CCCCN)C(=O)N[C@H](CC(N)=O)C(N)=O [(KFmoc)WKn-NH2] (Fmoc-KWK[dN]-NH2) | 8 µg/mL (≈ 10.1 µM) | 233 µg/mL (≈ 293 µM) | 47 µg/mL (≈ 59 µM) | – | 10 µg/mL (≈ 12.6 µM) | – | – | – | – |
| NCCCC[C@H](NC(=O)OCC1c2ccccc2-c2ccccc21)C(=O)N[C@@H](Cc1c[nH]c2ccccc12)C(=O)N[C@@H](CCCCN)C(=O)N1CCC[C@@H]1C(N)=O [(KFmoc)WKp-NH2] (Fmoc-KWK[dP]-NH2) | 5 µg/mL (≈ 6.42 µM) | 251 µg/mL (≈ 322 µM) | 39 µg/mL (≈ 50.1 µM) | 437 µg/mL | 8 µg/mL (≈ 10.3 µM) | – | – | – | – |
| NCCCC[C@H](NC(=O)OCC1c2ccccc2-c2ccccc21)C(=O)N[C@@H](Cc1c[nH]c2ccccc12)C(=O)N[C@@H](CCCCN)C(=O)N[C@H](CCC(N)=O)C(N)=O [(KFmoc)WKq-NH2] (Fmoc-KWK[dQ]-NH2) | 7 µg/mL (≈ 8.64 µM) | 291 µg/mL (≈ 359 µM) | 57 µg/mL (≈ 70.4 µM) | 483 µg/mL | 7 µg/mL (≈ 8.64 µM) | – | – | – | – |
| N=C(N)NCCC[C@@H](NC(=O)[C@H](CCCCN)NC(=O)[C@H](Cc1c[nH]c2ccccc12)NC(=O)[C@H](CCCCN)NC(=O)OCC1c2ccccc2-c2ccccc21)C(N)=O [(KFmoc)WKr-NH2] (Fmoc-KWK[dR]-NH2) | 5 µg/mL (≈ 5.97 µM) | 98 µg/mL (≈ 117 µM) | 66 µg/mL (≈ 78.8 µM) | 324 µg/mL | 7 µg/mL (≈ 8.35 µM) | – | – | – | – |
| NCCCC[C@H](NC(=O)OCC1c2ccccc2-c2ccccc21)C(=O)N[C@@H](Cc1c[nH]c2ccccc12)C(=O)N[C@@H](CCCCN)C(=O)N[C@H](CO)C(N)=O [(KFmoc)WKs-NH2] (Fmoc-KWK[dS]-NH2) | 6 µg/mL (≈ 7.8 µM) | 214 µg/mL (≈ 278 µM) | 57 µg/mL (≈ 74.1 µM) | 296 µg/mL | 6 µg/mL (≈ 7.8 µM) | – | – | – | – |
| C[C@H](O)[C@@H](NC(=O)[C@H](CCCCN)NC(=O)[C@H](Cc1c[nH]c2ccccc12)NC(=O)[C@H](CCCCN)NC(=O)OCC1c2ccccc2-c2ccccc21)C(N)=O [(KFmoc)WKt-NH2] (Fmoc-KWK[dT]-NH2) | 7 µg/mL (≈ 8.94 µM) | 292 µg/mL (≈ 373 µM) | 55 µg/mL (≈ 70.2 µM) | 435 µg/mL | 10 µg/mL (≈ 12.8 µM) | – | – | – | – |
| CC(C)[C@@H](NC(=O)[C@H](CCCCN)NC(=O)[C@H](Cc1c[nH]c2ccccc12)NC(=O)[C@H](CCCCN)NC(=O)OCC1c2ccccc2-c2ccccc21)C(N)=O [(KFmoc)WKv-NH2] (Fmoc-KWK[dV]-NH2) | 10 µg/mL (≈ 12.8 µM) | 187 µg/mL (≈ 239 µM) | 54 µg/mL (≈ 69.1 µM) | 181 µg/mL | 9 µg/mL (≈ 11.5 µM) | – | – | – | – |
| NCCCC[C@H](NC(=O)OCC1c2ccccc2-c2ccccc21)C(=O)N[C@@H](Cc1c[nH]c2ccccc12)C(=O)N[C@@H](CCCCN)C(=O)N[C@H](Cc1c[nH]c2ccccc12)C(N)=O [(KFmoc)WKw-NH2] (Fmoc-KWK[dW]-NH2) | 4 µg/mL (≈ 4.61 µM) | 116 µg/mL (≈ 134 µM) | 15 µg/mL (≈ 17.3 µM) | 32 µg/mL | 4 µg/mL (≈ 4.61 µM) | – | – | – | – |
| NCCCC[C@H](NC(=O)OCC1c2ccccc2-c2ccccc21)C(=O)N[C@@H](Cc1c[nH]c2ccccc12)C(=O)N[C@@H](CCCCN)C(=O)N[C@H](Cc1ccc(O)cc1)C(N)=O [(KFmoc)WKy-NH2] (Fmoc-KWK[dY]-NH2) | 8 µg/mL (≈ 9.47 µM) | 144 µg/mL (≈ 170 µM) | 39 µg/mL (≈ 46.2 µM) | 368 µg/mL | 7 µg/mL (≈ 8.28 µM) | – | – | – | – |
| C[C@@H](NC(=O)[C@H](Cc1ccc(O)cc1)NC(=O)[C@H](Cc1c[nH]c2ccccc12)NC(=O)[C@H](CCCCN)NC(=O)OCC1c2ccccc2-c2ccccc21)C(N)=O [(KFmoc)WYa-NH2] (Fmoc-KWY[dA]-NH2) | 5 µg/mL (≈ 6.35 µM) | 249 µg/mL (≈ 316 µM) | 87 µg/mL (≈ 110 µM) | 74 µg/mL | 5 µg/mL (≈ 6.35 µM) | – | – | – | – |
| NCCCC[C@H](NC(=O)OCC1c2ccccc2-c2ccccc21)C(=O)N[C@@H](Cc1c[nH]c2ccccc12)C(=O)N[C@@H](Cc1ccc(O)cc1)C(=O)N[C@H](Cc1c[nH]cn1)C(N)=O [(KFmoc)WYh-NH2] (Fmoc-KWY[dH]-NH2) | 8 µg/mL (≈ 9.37 µM) | 192 µg/mL (≈ 225 µM) | 40 µg/mL (≈ 46.8 µM) | 73 µg/mL | 7 µg/mL (≈ 8.2 µM) | – | – | – | – |
| CC[C@@H](C)[C@@H](NC(=O)[C@@H](CS)NC(=O)[C@H](CCCCN)NC(=O)OCC1c2ccccc2-c2ccccc21)C(=O)N[C@H](Cc1ccccc1)C(N)=O [(KFmoc)cif-NH2] (Fmoc-K[dC][dI][dF]-NH2) | – | 218 µg/mL (≈ 298 µM) | – | – | 21 µg/mL (≈ 28.7 µM) | – | – | – | – |
| (KFmoc)WK(Cys[ACM])-NH2 | 11 µg/mL | 303 µg/mL | 49 µg/mL | – | 11 µg/mL | – | – | – | – |
| (KFmoc)WK(Hyp)-NH2 | 10 µg/mL | 370 µg/mL | 62 µg/mL | – | 10 µg/mL | – | – | – | – |
| (KFmoc)WK(KCBZ)-NH2 | 9 µg/mL | 161 µg/mL | – | – | 9 µg/mL | – | – | – | – |
| (KFmoc)WY(Hyp)-NH2 | – | – | – | 81 µg/mL | – | 10 μg/m | 9 μg/m | – | – |
| (KFmoc)WY(KCBZ)-NH2 | – | – | – | – | – | 9 μg/m | 9 μg/m | 309 μg/m | 59 μg/m |
| (KFmoc)ci(Thiopro)-NH2 | – | – | – | – | – | 6 μg/m | 9 μg/m | 197 μg/m | 25 μg/m |
| (KFmoc)ciG-NH2 | 23 µg/mL | 372 µg/mL | – | 35 µg/mL | – | – | – | – | – |
